From paper PMC10683014, “Amino Acids as Chelating Ligands for Platinum: Enhanced Stability in an Aqueous Environment Promoted by Biocompatible Molecules” (Journal of Medicinal Chemistry, 2023)

Legend:
[1] = tested on: MCF-7 breast cancer cell line; assay: MTT metabolic activity (cytotoxicity) assay, MCF-7; format: cell-based; conditions: 72 h incubation
Experimental: (§1) In order to determine the antitumor activity of the platinum complexes, in vitro cytotoxicity tests were performed. Compounds 1–4 were tested with cisplatin as a reference on the breast cancer cell line MCF-7 and the colon carcinoma cell line HT-29. Complexes 1, 4, and 5, as well as the ligand (but-3-en-1-yl 2-acetoxybenzoate, 6) were additionally evaluated on MDA-MB-231 cells and A2780cis cells, also using cisplatin as a reference. The metabolic activity as an indicator of cytotoxicity was determined by a classical 3-(4,5-dimethylthiazol-2-yl)-2,5-diphenyltetrazoliumbromid (MTT) assay.
(§2) The cell lines A2780cis and MDA-MB-231 were cultivated in RPMI 1640 without phenol red (PAN Biotech, Aidenbach, Germany), supplemented with L-glutamine (2 mM), 100 μg/mL penicillin, 100 μg/mL streptomycin, and FCS (10%) (all from Invitrogen Corporation, Gibco, Paisley, Scotland) at 37 °C in a 5% CO2/95% air atmosphere, and passaged twice per week. To maintain resistance, A2780cis cells were incubated every second week with cisplatin (1 μM). The cell lines MCF-7 and HT-29 were grown in DMEM without phenol red (PAN Biotech, Aidenbach, Germany), containing L-glutamine, 100 μg/mL penicillin, 100 μg/mL streptomycin, sodium pyruvate ([…]) (PAN Biotech), and FCS (10%) under the same conditions as the other cell lines.
(§3) The exponentially growing cell lines were seeded at a density of 2000 cells/well for MCF-7 cells, 4000 cells/well for HT-29 cells and MDA-MB-231 cells, and 8000 cells/well for A2780cis cells, respectively, into clear flat-bottom 96-well plates in triplicates. Following 24 h of incubation for adherence at 37 °C in a humidified atmosphere (5% CO2/95% air), the compounds were added to reach the desired concentrations between 10 and 100 μM, respectively. All stock solutions were prepared in dimethylformamide at a concentration of 100 mM and were then diluted with the respective cell-culture medium to the appropriate concentrations. After another 72 h of incubation, the cellular metabolic activity was measured by employing a MTT assay. Hereby, the yellow tetrazolium salt is converted to a purple formazan salt by the functioning mitochondria. These purple crystals are then dissolved in DMSO and can be quantified via absorption measurements at 570 and 420 nm. The optical density of the particular medium was subtracted in order to exclude the unspecific staining caused by the FCS-containing medium. The values were calculated with Excel 2019 (Microsoft, Redmond, WA, USA) using nonlinear regression and the decal logarithm of the inhibitor versus variable slope equation, while the top constraint was set to 100%.

[2] = tested on: HT-29 colon carcinoma cell line; assay: MTT metabolic activity (cytotoxicity) assay, HT-29; format: cell-based; conditions: 72 h incubation
Experimental: as §1, §2, §3

[3] = tested on: MDA-MB-231 breast cancer cell line; assay: MTT metabolic activity (cytotoxicity) assay, MDA-MB-231; format: cell-based; conditions: for metabolic activity (residual) on MDA-MB-231: 25 μM, without compounds set at 100%; for IC50: MTT, 72 h incubation
Experimental: as §1, §2, §3

[4] = tested on: A2780cis ovarian carcinoma cell line (cisplatin-resistant); assay: MTT metabolic activity (cytotoxicity) assay, A2780cis; format: cell-based; conditions: for metabolic activity (residual) on A2780cis: 25 μM, without compounds set at 100%; for IC50: MTT, 72 h incubation
Experimental: as §1, §2, §3

[5] = Stability in concentrated trimethylglycine (TMG) aqueous solution followed by capillary electrophoresis; format: physicochemical; conditions: dissolved in 50% w/v TMG, diluted to final TMG 25%; CE at 230 nm
Text: Kadokawa et al.[35] reported that a highly concentrated solution of trimethyl glycine (TMG, also known as betaine) is able to improve the solubility of cisplatin in water without affecting the pharmacological proprieties of this drug. The mechanism behind this effect seems to lie in the hydrogen bond acceptor property of the carboxylate of TMG, which establishes hydrogen bonds with the amino groups of cisplatin. Betaine is a nontoxic compound and is highly soluble in water. On the basis of this study, we decided to test the solubility of 3 in a highly concentrated (50% w/v) TMG aqueous solution. The platinum compound was soluble enough to allow investigations with the established protocol for capillary electrophoresis. TMG has a strong absorption at low wavelengths, and therefore, a wavelength of 230 nm was chosen instead of 195 nm for recording the electropherograms with TMG.
(§4) A solution of sodium tetraborate (final borate concentration of 50 mM) and sodium dodecyl sulfate (100 mM) was used as a background electrolyte (BGE). The pH of the BGE was adjusted to 9.3 by titration with 1 M NaOH. Every new capillary was rinsed with 1 M NaOH (45 min), water (45 min), and BGE (45 min) before the first use. The capillary was kept on a constant temperature of 25 °C, whereas the sample carousel was temperature-controlled at 37 °C. Sample injection was performed in hydrodynamic mode, applying a pressure of 50 mbar for 2 s on the inlet vial. The separation voltage was set at +20 kV. If not stated differently, a wavelength of 195 nm was employed for the DAD detector. The analytic window was evaluated by using dodecaphenone as a micellar marker and methanol (HPLC grade) as an electroosmotic flow (EOF) marker. The run time required for the analysis was estimated to be 25 min. The capillary was flushed before every run with 0.1 M NaOH (3 min), water (3 min), and BGE (5 min). Every value is calculated from at least three independent measurements. The half-lives were presented as the mean ± standard deviation. All of the samples, buffers, and washing solutions were membrane-filtered (0.22 μm pore size). All samples employed for stability experiments were prepared using benzoic acid as an internal standard (IS).

[6] = Lipophilicity estimate from MEKC experiments (buffer/micelle partition); format: physicochemical; conditions: three independent experiments (one for 5 and 6)
Experimental: The lipophilicity of the tested compounds was estimated on the basis of MEKC experiments similar to Herbert and Dorsey[37] (see Table 7). The values estimated in this way were compared with theoretical values obtained from two different methods: for platinum complexes, a previously established method[38] was used, while for the organic ligand, the Osiris Property Explorer[39] was employed.
as §4

human recombinant COX-1 = biological target: T1, human recombinant COX-1 (Homo sapiens, UniProt P23219); assay: COX-1 inhibition, enzyme immunoassay (COX Inhibitor Screening Assay); format: biochemical; conditions: 2 min incubation
T1 construct: purchased Cayman Chemicals
Experimental: The incubation time of the compounds with the respective isoenzymes was exactly 2 min. The results are presented as the mean ± SD of three independent experiments with two replicates of each experiment.

human recombinant COX-2 = biological target: T2, human recombinant COX-2 (Homo sapiens, UniProt P35354); assay: COX-2 inhibition, enzyme immunoassay (COX Inhibitor Screening Assay); format: biochemical; conditions: 2 min incubation
T2 construct: purchased Cayman Chemicals
T2 sequence (P35354 18-604): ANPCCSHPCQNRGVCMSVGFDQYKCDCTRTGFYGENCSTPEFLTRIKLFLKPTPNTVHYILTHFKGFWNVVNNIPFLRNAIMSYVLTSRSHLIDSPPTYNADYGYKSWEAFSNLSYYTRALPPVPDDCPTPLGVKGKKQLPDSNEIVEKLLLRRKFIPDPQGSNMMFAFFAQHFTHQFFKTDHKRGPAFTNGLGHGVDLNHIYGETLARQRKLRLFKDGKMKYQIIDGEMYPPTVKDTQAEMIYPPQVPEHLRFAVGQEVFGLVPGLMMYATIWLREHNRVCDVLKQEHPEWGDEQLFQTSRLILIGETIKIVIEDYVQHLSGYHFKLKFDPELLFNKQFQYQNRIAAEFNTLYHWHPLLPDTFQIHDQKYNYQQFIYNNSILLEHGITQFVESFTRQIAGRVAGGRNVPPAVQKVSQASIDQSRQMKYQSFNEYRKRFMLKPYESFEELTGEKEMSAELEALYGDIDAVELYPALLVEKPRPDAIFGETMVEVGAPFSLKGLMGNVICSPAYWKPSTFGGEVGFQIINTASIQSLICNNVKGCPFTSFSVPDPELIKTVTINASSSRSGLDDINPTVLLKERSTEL
Experimental: Metal complexes containing an ASA moiety have been reported as inhibitors for COX-1/-2 previously.[4],[14],[40]−[44] […] Hereby, the isolated enzymes were treated with final concentrations of 10 and 25 μM of substances 1, 4, 5, and 6.
Inhibition of the isolated human recombinant COX-1 and COX-2 isoenzymes by the platinum complexes (10 and 25 μM) was evaluated using an enzyme immunoassay (EIA) (COX Inhibitor Screening Assay, Cayman Chemicals, Ann Arbor, Mi, USA) following the manufacturer’s protocol. The incubation time of the compounds with the respective isoenzymes was exactly 2 min. The results are presented as the mean ± SD of three independent experiments with two replicates of each experiment. The untreated control was set at 0% inhibition of the COX activity.

[7] = 50% methanolic solution; previously measured; cited from earlier work
[8] = Stability in aqueous solution followed by capillary electrophoresis; format: physicochemical
Experimental: The stability of complexes 1–4 was tested in an aqueous solution, to investigate how the different ways of amino acid coordination impacts aqueous degradation (see Table 4). The stability of complex 5 was previously measured in a 50% methanolic solution.[4]
as §4

[9] = Solubility in water (qualitative observation); format: physicochemical
Experimental: Complex 1 was synthesized using the procedure reported by Fujita et al.,[20] and cubic bright-yellow crystals were obtained within hours. […] When a slightly lower concentration was used (0.4 mmol of platinum precursor instead of 0.5 mmol), keeping the amount of solvent constant, no crystallization occurred within a short time (3–4 h). However, some colorless needle-shaped crystals formed after an extended period of time (5–6 weeks). The crystals obtained from both conditions were analyzed via single-crystal X-ray diffractometry.
However, the release of olefin in an aqueous environment was detected to an extent of about 20% after 72 h. The chelating amino acid enhances the stability of complex 4 (>72 h) in comparison to compound 5 (69.6 ± 3.0 h).

T1 sequence (P23219 24-599): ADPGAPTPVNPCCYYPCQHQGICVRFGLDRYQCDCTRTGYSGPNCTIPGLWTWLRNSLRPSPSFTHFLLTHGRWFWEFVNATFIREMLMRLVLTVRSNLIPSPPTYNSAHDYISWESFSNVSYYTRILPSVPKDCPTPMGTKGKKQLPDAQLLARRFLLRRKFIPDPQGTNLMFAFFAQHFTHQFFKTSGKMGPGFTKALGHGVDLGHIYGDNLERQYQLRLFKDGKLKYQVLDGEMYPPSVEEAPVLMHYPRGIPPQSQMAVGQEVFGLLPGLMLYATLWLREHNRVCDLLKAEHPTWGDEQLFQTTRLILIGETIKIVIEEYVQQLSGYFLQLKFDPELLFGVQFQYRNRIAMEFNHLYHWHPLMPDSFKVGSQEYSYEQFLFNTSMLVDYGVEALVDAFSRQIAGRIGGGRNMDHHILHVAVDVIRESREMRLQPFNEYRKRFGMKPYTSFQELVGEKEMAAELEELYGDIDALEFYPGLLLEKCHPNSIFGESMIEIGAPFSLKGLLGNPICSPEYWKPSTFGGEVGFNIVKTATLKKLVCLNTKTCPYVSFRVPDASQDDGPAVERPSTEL

Molecule	IC50 [1]	IC50 [2]	metabolic activity (residual) on MDA-MB-231 [3]	IC50 [3]	metabolic activity (residual) on A2780cis [4]	IC50 [4]	half-life time (τ1/2) in TMG solution [5]	coefficient of partition between buffer and micelles (k′), average [6]	% Inhibition COX-1 (human recombinant COX-1; 10 μM)	% Inhibition COX-1 (human recombinant COX-1; 25 μM)	% Inhibition COX-2 (human recombinant COX-2; 10 μM)	% Inhibition COX-2 (human recombinant COX-2; 25 μM)	also measured
N.N.[Cl][Pt][Cl] [cisplatin, reference compound]	29 ± 4.28 µM	13.9 ± 5.16 µM	8.71%	13.3 ± 0.87 µM	4.71%	14.8 ± 1.23 µM	–	–	–	–	–	–	–
C=C.NC(Cc1c[nH]cn1)C(=O)O.[Cl][Pt] [compound 3, (L-Histidinato-N,N)chlorido(η^2-ethene)platinate(II)]	> 100 µM	> 100 µM	–	–	–	–	12.0 ± 3.0 h	2.392 ± 0.185	–	–	–	–	–
C=CCCOC(=O)c1ccccc1OC(C)=O.[Cl][Pt-]([Cl])[Cl].[K+] [compound 5, potassium {trichlorido[η^2-(but-3-en-1-yl)-2-acetoxybenzoate]platinate(II)}]	–	–	–	> 50 µM	–	> 50 µM	–	–	67.84 ± 10.57%	80.49 ± 11.10%	39.56%	63.10 ± 8.07%	half-life in 50% methanolic solution [7]: 69.6 ± 3.0 h
C=CCCOC(=O)c1ccccc1OC(C)=O [compound 6, but-3-en-1-yl 2-acetoxybenzoate]	–	–	–	–	–	–	–	–	–	–	–	–	IC50 ([3]; Homo sapiens, MDA-MB-231): > 50 µM; IC50 ([4]; A2780cis): > 50 µM; inhibition at 10 µM (human recombinant COX-1; 10 μM): 23.7 ± 9.86%; inhibition at 25 µM (human recombinant COX-1; 25 μM): 16.4 ± 8.64%; inhibition at 10 µM (human recombinant COX-2; 10 μM): 15.7 ± 14.8%; inhibition at 25 µM (human recombinant COX-2; 25 μM): 16.9 ± 17.2%
(Ethylene,N-trans)(L-alaninato-N,O)chlorido(η^2-(but-3-en-1-yl)-2-acetoxybenzoate)platinate(II) [compound 4]	22.5 ± 3.23 µM	20.63 ± 0.11 µM	7.71%	15.4 ± 0.74 µM	33.13%	22.5 ± 0.97 µM	>72 h	3.383 ± 0.016	56.51 ± 0.72%	65.95 ± 4.01%	20.04%	60.50 ± 7.63%	half-life time (τ1/2) in aqueous environment, 50% methanol solution ([8]; 50% methanol solution (footnote a of Table 4), CE): >72 ^a h; release of olefin in aqueous environment ([8]; after 72 h): about 20%; solubility in water (in words) [9]: better solubility in water
